{
  "source": "BindingDB's records for patent US20240417410",
  "about": "(Hoffmann-La Roche, 2024)",
  "biological_target": "Peptidyl-prolyl cis-trans isomerase A (Homo sapiens, UniProt P62937)",
  "sequence (P62937 whole entry)": "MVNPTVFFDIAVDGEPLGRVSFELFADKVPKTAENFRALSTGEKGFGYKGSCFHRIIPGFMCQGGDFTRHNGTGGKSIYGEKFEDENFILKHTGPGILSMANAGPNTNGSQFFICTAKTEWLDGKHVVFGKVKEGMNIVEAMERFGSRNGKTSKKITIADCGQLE",
  "test": "CYPA Binding Analysis by Surface Plasmon Resonance (SPR) Assay",
  "procedure": "All SPR experiments were conducted on a Biacore 8K+ instrument (Cytiva). Recombinant biotinylated CYPA protein with a C-terminal AVI tag was purified and immobilized on flow cell 2 of SA chip (Cytiva, BR100531), with the flow cell 1 as the blank reference. The running buffer was HBS-P+ Buffer (Cytiva, BR100827, 0.01 M HEPES pH 7.4,0.15 M NaCl, 0.05% v/v Surfactant P20), and the flow rate was 10 μL/min. The immobilization level was achieved to about 1800 response units (RU). Compounds were 3-fold serially diluted to 1.5-3333 nM using HBS-P+Buffer with a final DMSO concentration of 1.5%, and then loaded to flow through the chip surface at a rate of 30 μL/min with HBS-P+Buffer containing 1.5% DMSO as the running buffer. Experiments were performed at 25° C. The contact time and dissociation time were set to 60 s and 200 s, respectively. After binding and dissociation of each sample, the chip was regenerated using 1 M NaCl with a short contact time of 19 s at a rate of 60 μL/min. The sensorgrams were analyzed using Biacore Insight Evaluation software with 1:1 kinetics binding model to determine the association rate constant (kon), dissociation rate constant (koff) and equilibrium dissociation constant (KD).",
  "data": [
    {"smiles": "CCn1c(-c2cc(N3CCN(C)CC3)cnc2[C@H](C)OC)c2c3cc(ccc31)-c1csc(n1)C[C@H](NC(=O)[C@H]1C[C@@H]1C)C(=O)N1CCC[C@H](N1)C(=O)OCC(C)(C)O2", "note": "[US20240417410, Example A122]", "values": [
      {"measurement": "Kd", "value": 30, "unit": "nM"}
    ]}
  ]
}
